Measurements from PubChem BioAssay AID330 (DTP/NCI, 2004).
Where “and” joins values, the source holds several entries; their conditions need not be identical. Identical values can stand only once. Inconclusive results and toxic doses are left out. The calls were made as follows: active = survival T/C of 150% or more; inactive = T/C below 125% in these data.

System: P388 leukemia ip, CD2F1 mice, survival T/C
Assay: NCI In Vivo Anticancer Drug Screen. Data for tumor model P388 Leukemia (intraperitoneal) in CD2F1 (CDF1) mice
Details: endpoint: median survival time, higher = longer survival
Method in brief: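 Mice carrying the transplanted tumor received test compound or vehicle. Survival was recorded in each group, and the value is the treated-group measurement divided by that of the vehicle-treated control group.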

[1] = dose: 25.0 mg/kg/injection, schedule: Q01DX009 (ip), vehicle: saline
[2] = dose: 12.5 mg/kg/injection, schedule: Q01DX009 (ip), vehicle: saline
[3] = dose: 50.0 mg/kg/injection, schedule: Q01DX009 (ip), vehicle: saline
[4] = dose: 50.0 mg/kg/injection, schedule: Q01DX005 (ip), vehicle: saline with Tween-80
[5] = dose: 100.0 mg/kg/injection, schedule: Q01DX005 (ip), vehicle: saline with Tween-80
[6] = dose: 50.0 mg/kg/injection, schedule: Q01DX005 (ip), vehicle: saline
[7] = dose: 100.0 mg/kg/injection, schedule: Q01DX005 (ip), vehicle: saline
[8] = dose: 200.0 mg/kg/injection, schedule: Q01DX005 (ip), vehicle: saline
[9] = dose: 60.0 mg/kg/injection, schedule: Q01DX005 (ip), vehicle: Klucel (hydroxypropylcellulose) (HPC)
[10] = dose: 120.0 mg/kg/injection, schedule: Q01DX005 (ip), vehicle: Klucel (hydroxypropylcellulose) (HPC)
[11] = dose: 100.0 mg/kg/injection, schedule: Q01DX001 (ip), vehicle: saline with Tween-80
[12] = dose: 200.0 mg/kg/injection, schedule: Q01DX001 (ip), vehicle: saline with Tween-80

Measured: T/C

C=C1CC[C@H]2C(C)=CC[C@@H]3[C@H](OC(=O)[C@H]3CN3CCN(c4ccc(C)c([N+](=O)[O-])c4)CC3)[C@@H]12
inactive: dose: 100.0 mg/kg/injection, schedule: Q04DX002 (ip), vehicle: saline 97 % of control | dose: 200.0 mg/kg/injection, schedule: Q04DX002 (ip), vehicle: saline 99 % of control | dose: 400.0 mg/kg/injection, schedule: Q04DX002 (ip), vehicle: saline 96 % of control

CCCCC[C@@H]1CCCC2C1CC[C@@H](CCCCCI)N2C(=O)OCC(Cl)(Cl)Cl (some centres undefined)
inactive: dose: 100.0 mg/kg/injection, schedule: Q04DX002 (ip), vehicle: saline with Tween-80 100 % of control | dose: 200.0 mg/kg/injection, schedule: Q04DX002 (ip), vehicle: saline with Tween-80 100 % of control | dose: 400.0 mg/kg/injection, schedule: Q04DX002 (ip), vehicle: saline with Tween-80 105 % of control

C[S+](C)c1ccccc1NC(C)(C)C
inactive: dose: 6.25 mg/kg/injection, schedule: Q01DX009 (ip), vehicle: saline + alcohol 99 % of control | dose: 12.5 mg/kg/injection, schedule: Q01DX009 (ip), vehicle: saline + alcohol 100 % of control | dose: 25.0 mg/kg/injection, schedule: Q01DX009 (ip), vehicle: saline + alcohol 96 % of control | [1] 101 % of control

[I][Hg][CH2]C1Cc2ccccc2O1 (centres undefined)
inactive: dose: 6.25 mg/kg/injection, schedule: Q01DX009 (ip), vehicle: saline 90 % of control | [2] 90 % of control | [1] 99 % of control | [3] 96 % of control

COc1cc(C[C@H](CO)[C@H](CO)Cc2ccc3c(c2)OCO3)cc(OC)c1OC
inactive: dose: 12.5 mg/kg/injection, schedule: Q04DX002 (ip), vehicle: acetone 100 % of control | dose: 25.0 mg/kg/injection, schedule: Q04DX002 (ip), vehicle: acetone 102 % of control | dose: 50.0 mg/kg/injection, schedule: Q04DX002 (ip), vehicle: acetone 103 % of control

O=C(NC(Cc1ccc(O)cc1)C(=O)O)C(=O)c1c[nH]c2ccc([N+](=O)[O-])cc12 (centres undefined)
inactive: dose: 60.0 mg/kg/injection, schedule: Q01DX005 (ip), vehicle: saline with Tween-80 97 % of control | dose: 120.0 mg/kg/injection, schedule: Q01DX005 (ip), vehicle: saline with Tween-80 97 % of control | dose: 240.0 mg/kg/injection, schedule: Q01DX005 (ip), vehicle: saline with Tween-80 89 % of control

CCOC(=O)C(Cc1ccccc1[N+](=O)[O-])(NC(C)=O)C(=O)OCC
inactive: dose: 50.0 mg/kg/injection, schedule: Q01DX009 (ip), vehicle: saline with Tween-80 94 % of control | dose: 100.0 mg/kg/injection, schedule: Q01DX009 (ip), vehicle: saline with Tween-80 93 % of control | dose: 200.0 mg/kg/injection, schedule: Q01DX009 (ip), vehicle: saline with Tween-80 100 % of control | dose: 400.0 mg/kg/injection, schedule: Q01DX009 (ip), vehicle: saline with Tween-80 103 % of control

C=CC1OCCCO1
inactive: dose: 60.0 mg/kg/injection, schedule: Q01DX005 (ip), vehicle: saline 100 % of control | dose: 120.0 mg/kg/injection, schedule: Q01DX005 (ip), vehicle: saline 100 % of control

Nc1ncnc2c(C3OC(CO)C(O)C3O)[nH]nc12 (centres undefined)
inactive: dose: 1.25 mg/kg/injection, schedule: Q01DX009 (ip), vehicle: saline 109 % of control | dose: 2.5 mg/kg/injection, schedule: Q01DX009 (ip), vehicle: saline 109 % of control | dose: 5.0 mg/kg/injection, schedule: Q01DX009 (ip), vehicle: saline 118 % of control | dose: 5.56 mg/kg/injection, schedule: Q01DX009 (ip), vehicle: saline 109 % of control | dose: 6.25 mg/kg/injection, schedule: Q01DX009 (ip), vehicle: saline sonified 104 % of control | dose: 8.33 mg/kg/injection, schedule: Q01DX009 (ip), vehicle: saline 90 % of control | dose: 12.0 mg/kg/injection, schedule: Q01DX009 (ip), vehicle: saline sonified 105 % of control | [2] 122 % of control | dose: 18.7 mg/kg/injection, schedule: Q01DX009 (ip), vehicle: saline 90 % of control

CCOC(=O)/C(C#N)=C/Nc1cc(C(=O)OCC)cc2c(OC)c(OC)ccc12
inactive: dose: 12.5 mg/kg/injection, schedule: Q01DX009 (ip), vehicle: distilled water + Tween-80 97 % of control | dose: 25.0 mg/kg/injection, schedule: Q01DX009 (ip), vehicle: distilled water + Tween-80 93 % of control | dose: 50.0 mg/kg/injection, schedule: Q01DX009 (ip), vehicle: distilled water + Tween-80 106 % of control | dose: 100.0 mg/kg/injection, schedule: Q01DX009 (ip), vehicle: distilled water + Tween-80 106 % of control | dose: 200.0 mg/kg/injection, schedule: Q01DX009 (ip), vehicle: distilled water + Tween-80 110 % of control

O=[N+]([O-])c1ccc(C=C2C=CN(CCO)C=C2)cc1
inactive: [4] 100 % of control | [5] 108 % of control

Nc1nnnn1CCCCO
inactive: [6] 104 % of control | [7] 103 % of control | [8] 111 % of control | dose: 400.0 mg/kg/injection, schedule: Q01DX005 (ip), vehicle: saline 120 % of control

CCOC1(OCC)Oc2c(Cl)c(Cl)c(Cl)c(Cl)c2OC1(OCC)OCC
inactive: [9] 99 % of control | [10] 100 % of control | dose: 240.0 mg/kg/injection, schedule: Q01DX005 (ip), vehicle: Klucel (hydroxypropylcellulose) (HPC) 104 % of control

O=C(Nc1ccc(Sc2ccc(N=Nc3c(O)c(S(=O)(=O)O)cc4cc(S(=O)(=O)O)ccc34)cc2)cc1)c1ccc(N=Nc2cc(S(=O)(=O)O)c3ccccc3c2O)cc1
inactive: [4] 98 % of control | [5] 102 % of control | dose: 200.0 mg/kg/injection, schedule: Q01DX005 (ip), vehicle: saline with Tween-80 98 % of control

O=S(=O)(N/N=C/c1ccccc1)c1ccccc1
inactive: dose: 25.0 mg/kg/injection, schedule: Q01DX009 (ip), vehicle: Klucel (hydroxypropylcellulose) (HPC) 106 % of control | dose: 50.0 mg/kg/injection, schedule: Q01DX009 (ip), vehicle: Klucel (hydroxypropylcellulose) (HPC) 97 % of control | dose: 100.0 mg/kg/injection, schedule: Q01DX009 (ip), vehicle: Klucel (hydroxypropylcellulose) (HPC) 99 % of control | dose: 200.0 mg/kg/injection, schedule: Q01DX009 (ip), vehicle: Klucel (hydroxypropylcellulose) (HPC) 106 % of control

CC1CCCC(C)N1NC1=NCCO1 (centres undefined)
inactive: dose: 25.0 mg/kg/injection, schedule: Q04DX003 (ip), vehicle: saline with Tween-80 104 % of control | dose: 50.0 mg/kg/injection, schedule: Q04DX003 (ip), vehicle: saline with Tween-80 95 % of control

N=C(N)c1ccc(O)cc1
inactive: [6] 102 % of control | [7] 111 % of control | [8] 112 % of control

CC(C)(C)C1=CC2(C(C)(C)C)OC2C(=O)C1=O (centres undefined)
inactive: dose: 3.12 mg/kg/injection, schedule: Q01DX009 (ip), vehicle: saline with Tween-80 105 % of control | dose: 6.25 mg/kg/injection, schedule: Q01DX009 (ip), vehicle: saline with Tween-80 105 % of control | dose: 12.5 mg/kg/injection, schedule: Q01DX009 (ip), vehicle: saline with Tween-80 98 % of control

c1ccc(C2NCCS2)cc1 (centres undefined)
inactive: dose: 50.0 mg/kg/injection, schedule: Q01DX005 (ip), vehicle: Klucel (hydroxypropylcellulose) (HPC) 100 % of control | dose: 100.0 mg/kg/injection, schedule: Q01DX005 (ip), vehicle: Klucel (hydroxypropylcellulose) (HPC) 104 % of control | dose: 200.0 mg/kg/injection, schedule: Q01DX005 (ip), vehicle: Klucel (hydroxypropylcellulose) (HPC) 104 % of control

CC1=C(C(=O)Nc2ccc(Cl)c(C(=O)OC(C)C)c2)SCCO1
inactive: [11] 96 % of control | [12] 92 % of control | dose: 400.0 mg/kg/injection, schedule: Q01DX001 (ip), vehicle: saline with Tween-80 87 % of control

COc1cccc(C(=O)OCCC(C)C)c1O
inactive: [3] 110 % of control | dose: 100.0 mg/kg/injection, schedule: Q01DX009 (ip), vehicle: saline 110 % of control and 92 % of control | dose: 200.0 mg/kg/injection, schedule: Q01DX009 (ip), vehicle: saline 104 % of control and 117 % of control

C1CCC(N2CSC3CCCCC32)CC1 (centres undefined)
inactive: [9] 95 % of control | [10] 97 % of control

O=c1c(Cl)c(Cl)cnn1-c1ccccc1
inactive: dose: 25.0 mg/kg/injection, schedule: Q01DX001 (ip), vehicle: saline with Tween-80 100 % of control | dose: 50.0 mg/kg/injection, schedule: Q01DX001 (ip), vehicle: saline with Tween-80 118 % of control | [11] 111 % of control | [12] 111 % of control
